Data set [1] in a line: in vitro. More on the design: species or system HB2, HEK293. The following applies: human, ccd841 cells.
Another data set has as its target T1, BSA (Bos taurus, UniProt P02769).
T1 construct: gene ALB
More on the design: Intact protein LC/MS covalent labelling, fragments in pools of five, 200 uM each, 4 °C. The following applies: 24 h, 4 °C, pool of five; 200 µM; covalent.

Another data set has as its target T2, NUDT7 (Homo sapiens, UniProt P0C024).
T2 construct: residues 14-235, E. coli, pNIC28-Bsa4, N-terminal His6 tag removed by TEV, construct 26672 Da
Set-up: Intact protein LC/MS covalent labelling, fragments in pools of five, 200 uM each, 4 °C. To be noted: 24 h, 4 °C, pool of five; 200 µM; covalent.

A further data set concerns the target T3, PCAF (Homo sapiens, UniProt Q92831).
T3 construct: gene KAT2B
More on the design: Intact protein LC/MS covalent labelling, fragments in pools of five, 200 uM each, 4 °C. The following applies: 24 h, 4 °C, pool of five; 200 µM; covalent.

Another data set has as its target T4, OTUB2 (OTUB2A) (Homo sapiens, UniProt Q96DC9).
T4 construct: full length residues 1-234, E. coli BL21(DE3)-R3, His tag removed by TEV, construct 27312 Da
T4 sequence (Q96DC9 1-234): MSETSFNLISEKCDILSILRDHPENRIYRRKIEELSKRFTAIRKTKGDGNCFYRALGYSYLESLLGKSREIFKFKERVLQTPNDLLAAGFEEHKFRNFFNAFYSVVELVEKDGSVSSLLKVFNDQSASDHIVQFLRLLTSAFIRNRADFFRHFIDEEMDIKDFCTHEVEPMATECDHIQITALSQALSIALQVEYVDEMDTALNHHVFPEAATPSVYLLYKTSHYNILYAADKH
Set-up: Intact protein LC/MS covalent labelling, fragments in pools of five, 200 uM each, 4 °C. The following applies: 24 h, 4 °C, pool of five; 200 µM; covalent.

Data set [2] in a line: in vitro. More on the design: species or system HB2, CCD841. The following applies: human, hek293 cells.
Data set [3] is described as follows: in vitro. More on the design: species or system CCD841, HEK293. The following applies: human, hb2 cells, read-out: HB-2 Cells Viability (%).

Results on 20 compounds are retold here after paper PMC6556873, “Rapid Covalent-Probe Discovery by Electrophile-Fragment Screening” (Journal of the American Chemical Society, 2019).

The structures appear in SMILES notation. Read-outs that look alike come from different tables or passages of the source.

T2 sequence (P0C024 14-235): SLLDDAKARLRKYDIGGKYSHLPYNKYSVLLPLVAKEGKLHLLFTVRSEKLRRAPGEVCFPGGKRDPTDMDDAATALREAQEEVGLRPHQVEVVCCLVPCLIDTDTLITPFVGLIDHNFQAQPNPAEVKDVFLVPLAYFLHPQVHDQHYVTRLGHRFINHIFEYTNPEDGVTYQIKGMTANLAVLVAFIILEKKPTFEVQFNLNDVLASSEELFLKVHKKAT
T3 sequence (Q92831 whole entry): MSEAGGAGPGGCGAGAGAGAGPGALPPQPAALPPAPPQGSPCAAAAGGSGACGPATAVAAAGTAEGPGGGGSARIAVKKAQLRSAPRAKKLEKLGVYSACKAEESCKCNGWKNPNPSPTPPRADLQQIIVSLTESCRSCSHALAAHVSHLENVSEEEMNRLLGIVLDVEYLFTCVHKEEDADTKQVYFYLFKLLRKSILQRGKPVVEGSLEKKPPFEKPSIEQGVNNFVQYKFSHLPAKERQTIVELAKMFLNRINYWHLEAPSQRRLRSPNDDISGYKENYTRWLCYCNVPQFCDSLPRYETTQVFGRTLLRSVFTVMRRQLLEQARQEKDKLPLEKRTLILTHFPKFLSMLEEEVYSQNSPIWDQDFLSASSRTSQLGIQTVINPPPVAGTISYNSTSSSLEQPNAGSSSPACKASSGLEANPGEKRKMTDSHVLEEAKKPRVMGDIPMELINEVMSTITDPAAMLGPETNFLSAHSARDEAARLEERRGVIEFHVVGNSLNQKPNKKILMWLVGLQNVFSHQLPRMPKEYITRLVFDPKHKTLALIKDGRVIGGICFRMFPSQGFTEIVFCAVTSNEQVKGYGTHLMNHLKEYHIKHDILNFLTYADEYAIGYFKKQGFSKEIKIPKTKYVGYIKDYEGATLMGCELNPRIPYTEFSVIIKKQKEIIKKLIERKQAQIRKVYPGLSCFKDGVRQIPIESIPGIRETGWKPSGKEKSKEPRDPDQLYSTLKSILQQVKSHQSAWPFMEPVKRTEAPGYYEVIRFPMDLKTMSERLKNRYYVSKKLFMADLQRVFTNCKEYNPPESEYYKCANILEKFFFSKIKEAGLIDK
T1 sequence (P02769 whole entry): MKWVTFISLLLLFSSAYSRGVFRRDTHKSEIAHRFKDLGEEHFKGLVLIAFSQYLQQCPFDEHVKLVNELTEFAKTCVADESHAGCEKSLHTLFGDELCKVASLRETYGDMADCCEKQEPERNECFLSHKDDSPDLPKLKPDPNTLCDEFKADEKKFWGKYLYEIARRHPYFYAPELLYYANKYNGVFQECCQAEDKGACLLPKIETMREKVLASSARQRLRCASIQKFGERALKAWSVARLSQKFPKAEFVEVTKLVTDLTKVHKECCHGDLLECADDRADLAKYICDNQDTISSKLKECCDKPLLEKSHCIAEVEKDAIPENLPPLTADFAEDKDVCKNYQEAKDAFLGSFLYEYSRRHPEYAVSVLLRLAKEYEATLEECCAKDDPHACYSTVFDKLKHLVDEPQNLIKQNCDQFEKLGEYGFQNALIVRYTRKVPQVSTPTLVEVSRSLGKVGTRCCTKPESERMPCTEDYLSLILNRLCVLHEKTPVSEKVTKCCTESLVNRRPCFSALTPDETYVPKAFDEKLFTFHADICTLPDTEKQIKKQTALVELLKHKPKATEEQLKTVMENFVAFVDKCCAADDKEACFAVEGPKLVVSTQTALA

A word on the viability: it is a read-out of living cells in per cent, often relative to untreated cells. As to `CC(C)C(=O)NNC(=O)CCl` [PCM-0103014], the viability at 48 h, 10 µM was found to be 95.1% in the data set “in vitro [1]”, 126% in the data set “in vitro [2]” and 98.8% in the data set “in vitro [3]”. The compound also yielded a BSA on BSA of 0. Also, at NUDT7, the NUDT7 amounted to 0. Besides, the PCAF on PCAF came to 0. This compound yielded an OTUB2 at OTUB2 (OTUB2A) of 0.09.
Regarding `O=C(CCl)N1CCN(c2ccccc2[N+](=O)[O-])CC1` [PCM-0103016], the figures for the viability at 48 h, 10 µM in the data set “in vitro [1]”, in the data set “in vitro [2]” and in “in vitro [3]” were 61.4%, 13.4% and 8.7%, respectively. The BSA at BSA is 0.16. The NUDT7 at NUDT7 worked out at 0.27. In addition, the PCAF on PCAF is 0. At OTUB2 (OTUB2A), this compound returned an OTUB2 of 0.09.
With `Cc1ccc(CN(C)C(=O)CCl)cc1` [PCM-0103017], the viability at 48 h, 10 µM in the data set “in vitro [1]” came to 73.9%; in “in vitro [2]”, 58.2%; in the data set “in vitro [3]”, 67.7%. For the same compound, the BSA on BSA is 0. The same compound had an NUDT7 at NUDT7 of 0.09. On PCAF, this compound returned a PCAF of 0. Further, on OTUB2 (OTUB2A), the OTUB2 was found to be 0.
On to `CC1CCC(N(C)C(=O)CCl)CC1` (centres unmarked) [PCM-0103019], for which the viability at 48 h, 10 µM in the data set “in vitro [1]” is 40.7%; in “in vitro [2]”, 39.9%; in the data set “in vitro [3]” it was 39.2%. This compound also came in with a BSA at BSA of 0. The compound further displayed an NUDT7 on NUDT7 of 0. The compound further came in with a PCAF on PCAF of 0. Also, the OTUB2 on OTUB2 (OTUB2A) is on record as 0.
On to `O=C(CCl)NCC1Cc2ccccc2O1` (centres unmarked) [PCM-0103020], for which the viability at 48 h, 10 µM in “in vitro [1]” was determined as 88.9%; in “in vitro [2]”, 87.1%; in the data set “in vitro [3]”, 99.1%. Moreover, at BSA, the BSA was 0. The NUDT7 at NUDT7 was 0. The compound also had a PCAF at PCAF of 0. Also, the OTUB2 on OTUB2 (OTUB2A) was determined as 0.
For the compound `CC(C)(C)C(=O)NC(=O)CCl` [PCM-0103021], the viability at 48 h, 10 µM turned out to be 116% in the data set “in vitro [1]”, 98.9% in “in vitro [2]” and 105% in “in vitro [3]”. This compound returned a BSA at BSA of 0. Further, the NUDT7 at NUDT7 turned out to be 0. The compound also came in with a PCAF at PCAF of 0. At OTUB2 (OTUB2A), the OTUB2 is recorded as 0.
With `O=C(CCl)N1CCN(c2ncc(Cl)cc2Cl)CC1` [PCM-0103022], the viability at 48 h, 10 µM in the data set “in vitro [1]” was 36.4%; in the data set “in vitro [2]”, 13.4%; in “in vitro [3]” it was 3.6%. Also, at BSA, the BSA is 0. Besides, on NUDT7, the NUDT7 turned out to be 0.22. This compound also yielded a PCAF on PCAF of 0. The same compound yielded an OTUB2 on OTUB2 (OTUB2A) of 0.
Take `O=C(CCl)N1CCc2sccc2C1c1ccccc1` (centres unmarked) [PCM-0103024]: the viability at 48 h, 10 µM in the data set “in vitro [1]” was determined as 3%; in “in vitro [2]” it was 1.9%; in “in vitro [3]”, 4.6%. The BSA on BSA came to 0. On NUDT7, this compound returned an NUDT7 of 0.69. For the same compound, the PCAF at PCAF is on record as 0. Further, at OTUB2 (OTUB2A), the OTUB2 is on record as 0.
Take `C=CC(=O)N1CCC2(CCc3ccccc3O2)C1` (centres unmarked) [PCM-0103025]: the viability at 48 h, 10 µM is 90.8% in “in vitro [1]”, 103% in the data set “in vitro [2]” and 101% in “in vitro [3]”. At BSA, this compound had a BSA of 0. The compound also had an NUDT7 at NUDT7 of 0. In addition, at PCAF, the PCAF was determined as 0. Also, the OTUB2 at OTUB2 (OTUB2A) is given as 0.2.
As to `CC1CCCCC1N(C)C(=O)CCl` (centres unmarked) [PCM-0103026], the viability at 48 h, 10 µM in “in vitro [1]” turned out to be 57%; in the data set “in vitro [2]”, 31.2%; in the data set “in vitro [3]” it was 18.3%. For the same compound, on BSA, the BSA is given as 0. The NUDT7 on NUDT7 was 0.12. The PCAF on PCAF is 0. This compound returned an OTUB2 at OTUB2 (OTUB2A) of 0.
`COC(=O)c1ccc(C)c(NC(=O)CCl)c1` [PCM-0103027]: the figures for the viability at 48 h, 10 µM in the data set “in vitro [1]”, in the data set “in vitro [2]” and in “in vitro [3]” were 54.7%, 22.1% and 34.3%, respectively. At BSA, this compound gave a BSA of 0. On NUDT7, this compound had an NUDT7 of 0.05. Moreover, the PCAF on PCAF worked out at 0. In addition, at OTUB2 (OTUB2A), the OTUB2 turned out to be 0.
As for `CC1CCc2c(sc(NC(=O)CCl)c2C(N)=O)C1` (centres unmarked) [PCM-0103029], the values for the viability at 48 h, 10 µM in the data set “in vitro [1]”, in the data set “in vitro [2]” and in the data set “in vitro [3]” were 63.2%, 18.6% and 21%, respectively. For the same compound, at BSA, the BSA was found to be 0. The compound further gave an NUDT7 at NUDT7 of 0.09. Moreover, the PCAF at PCAF worked out at 0. On OTUB2 (OTUB2A), this compound displayed an OTUB2 of 0.
As for `CC(NC(=O)CCl)c1ccc2c(c1)OCO2` (centres unmarked) [PCM-0103030], the viability at 48 h, 10 µM in the data set “in vitro [1]” was determined as 102%; in “in vitro [2]”, 78.2%; in “in vitro [3]”, 89.2%. Also, the BSA on BSA was determined as 0. The compound further had an NUDT7 at NUDT7 of 0.12. Moreover, at PCAF, the PCAF turned out to be 0. At OTUB2 (OTUB2A), this compound registered an OTUB2 of 0.28.
For the compound `Cc1ccc2nc(NC(=O)CCl)sc2c1` [PCM-0103031], the viability at 48 h, 10 µM in “in vitro [1]” came to 74.9%; in “in vitro [2]”, 79.2%; in “in vitro [3]” it was 70.6%. At BSA, this compound returned a BSA of 0. Besides, at NUDT7, the NUDT7 was 0.88. This compound yielded a PCAF at PCAF of 0. Besides, the OTUB2 at OTUB2 (OTUB2A) is on record as 0.18.
Take `Cl.O=C(CCl)N1CCN(c2cccc(Cl)c2)CC1` [PCM-0103032]: the viability at 48 h, 10 µM in “in vitro [1]” came to 71.1%; in “in vitro [2]”, 58.5%; in “in vitro [3]” it was 12%. The same compound yielded a BSA on BSA of 0. Besides, the NUDT7 on NUDT7 turned out to be 0.22. This compound also showed a PCAF on PCAF of 0. This compound showed an OTUB2 on OTUB2 (OTUB2A) of 0.21.
As for `N#Cc1cccc(NC(=O)CCl)c1` [PCM-0103033], the viability at 48 h, 10 µM in the data set “in vitro [1]” is 19.1%; in “in vitro [2]”, 7.4%; in the data set “in vitro [3]” it was 6.3%. Moreover, the BSA on BSA is given as 0. The compound further yielded an NUDT7 at NUDT7 of 0. At PCAF, the PCAF is 0. Further, at OTUB2 (OTUB2A), the OTUB2 is 0.23.
With `O=C(CCl)NC(=O)NCC(F)(F)F` [PCM-0103037], the viability at 48 h, 10 µM was 78.2% in the data set “in vitro [1]”, 95.7% in “in vitro [2]” and 89% in “in vitro [3]”. For the same compound, the BSA at BSA stood at 0. Moreover, the NUDT7 at NUDT7 worked out at 0. Also, at PCAF, the PCAF worked out at 0. The compound further came in with an OTUB2 on OTUB2 (OTUB2A) of 0.3.
Take `O=C(CCl)N1CC=C(c2ccccc2)CC1` [PCM-0103038]: the values for the viability at 48 h, 10 µM in “in vitro [1]”, in the data set “in vitro [2]” and in “in vitro [3]” were 86.8%, 89.2% and 90.9%, respectively. This compound also showed a BSA at BSA of 0. The NUDT7 at NUDT7 amounted to 0. This compound also yielded a PCAF at PCAF of 0. Moreover, the OTUB2 on OTUB2 (OTUB2A) is 0.09.
For the compound `C=CC(=O)Nc1cc(F)cc(F)c1` [PCM-0103039], the viability at 48 h, 10 µM in “in vitro [1]” is 93.3%; in “in vitro [2]”, 67.1%; in “in vitro [3]” it was 86.7%. The compound also displayed a BSA at BSA of 0. This compound also showed an NUDT7 at NUDT7 of 0.06. Besides, the PCAF at PCAF is 0. At OTUB2 (OTUB2A), this compound came in with an OTUB2 of 0.
On to `O=C(CCl)Nc1ccc(F)cc1Cl` [PCM-0103040], for which the viability at 48 h, 10 µM in the data set “in vitro [1]” came out at 68.7%; in “in vitro [2]”, 60.3%; in “in vitro [3]”, 76.9%. Also, the BSA on BSA is reported as 0. This compound registered an NUDT7 on NUDT7 of 0. The PCAF at PCAF is reported as 0. The compound also yielded an OTUB2 at OTUB2 (OTUB2A) of 0.
